# Data: patent US7122668B2, “Platinum complexes and their use in therapy” (priority 2002, dated 2006)
# What was measured:
# plasmid pS16-hGH DNA = assay: Determination of Pt-DNA adducts by EtBr fluorescence; assay type: binding; settings: DNA modified 24 hr
# Description: A plasmid (4.8 kbp) containing a gene coding for human growth hormone, plasmid pS16-hGH, was prepared as previously described^(23). The freshly prepared DNA was analyzed by agarose gel (1%) electrophoresis using post-staining with SYBR Green I fluorescent dye (Molecular Probes, Eugene, Oreg.). […] The ratio of absorbance at 260 nm to that at 280 nm was always between 1.8 and 1.9.
# DNA were modified by the platinum complexes in 10 mM NaClO4 (pH 7.0) at 37° C. in the dark for 24 hr. Measurements of EtBr fluorescence were performed on an LS50B luminescence spectrometer (Perkin Elmer, Norwalk, Conn.). Fluorescence measurements of DNA modified by platinum in the presence of EtBr were performed using the excitation wavelength of 546 nm (slit 10 run) and emission wavelength of 590 nm (slit 10 nm) at 25° C. The concentrations were 0.01 mg/ml for DNA and 0.04 mg/ml for EtBr, which corresponded to the saturation of all intercalation sites of EtBr in DNA.
# EtBr, as the fluorescent probe, was used to distinguish between perturbations induced in DNA by adducts of platinum (II) compounds^(14). Binding of EtBr by intercalation is blocked in a stoichiometric manner by formation of the bifunctional adducts, as of Cis-Pt, which results in a loss of fluorescence intensity. On the other hand, formation of monofunctional adducts results only in a slight decrease of EtBr fluorescence.
# OV-1063 cells [1] = settings: 5 hr, 6.5 μM
# Text: (§1) (1) By staining of the C-26 and OV-1063 cells with Merocyanine 540 (MC 540) (Molecular probes, Oregon, USA) and 4′, 6-diamidino-2-phenylindone dihydrochloride (DAPI) (Molecular probes, Oregon, USA). This assay is based on the observation that soon after the initiation of apoptosis, phosphatidylserine (PS) translocates from the inner face of the plasma membrane to the cell surface. At this point, PS can be easily detected by staining with MC 540, which has a strong affinity to PS^(25). Chromatin condensation was assessed by staining with DAPI, which preferentially stains double stranded DNA. In the following experiments samples containing 5*10^5 cells were cultured on 6-well plates covered with a glass coverslip. After treatment of cells with IC50 of the complexes, cells were washed with PBS and incubated for 2 min in the dark in 500 μl of PBS containing 2.5 μl of MC 540 (1 mg/ml). After that cells were washed with PBS, fixated with 4% formaldehyde and stained with 300 μl DAPI (3 μM). Thereafter, glass coverslip was placed on a glass slide and photographed using a fluorescence confocal microscope.
# (§2) Apoptosis, also known as programmed cell death, is involved in the regulation of cell number in multicellular organism, and the pathogenesis of various diseases, including tumor progression, neurodegenerative disorders and viral infections. […]
# C-26 cells [2] = settings: 5 hr, 4.5 μM
# Text: as §1, §2
# calf thymus DNA = assay: DNA binding (calf thymus DNA platination)
# Description: The formation of calf thymus DNA platination was also examined. To this end, calf thymus DNA was incubated with different compounds (Table 3) in which the following parameters were determined: […]
# OV-1063 cells [3] = assay: Platinum complex intracellular accumulation (FAAS); assay type: cell-based, human; settings: OV-1063, 24 hr
# Description: (§3) Cells were seeded for 48 hr before one of the complexes was added to the culture medium. After 24 hr of exposure, the complexes were removed and the cells washed twice with ice-cold PBS and pelleted. The cells (1*10^6) were dried and mineralized by heating for 10 min in 65% HNO3 (BDH, England)^(22). Samples were dissolved in de-ionized water and each sample was measured at two different dilutions by flameless Zeeman atomic absorption spectrometer (FAAS). The calibration curves included 5 standards of K2PtCl4 stock solution with concentrations ranging from 50 to 250 ng platinum per ml. Platinum content was expressed as picomoles platinum per 1*10^6 cells.
# (§4) The Pt content associated with the cells was measured by Atomic Absorption Spectroscopy (AAS).
# C-26 cells [4] = assay: Platinum complex intracellular accumulation (FAAS); assay type: cell-based, human; settings: C-26, 24 hr
# Description: as §3, §4
# A2780cisR = assay: Microculture tetrazolium (MTS) cell survival assay; assay type: cell-based
# Description: (§5) Cytotoxicity of the synthesized complexes was also tested by the MTS method^(21). Accordingly, the compounds were incubated for 24 hours with the corresponding cell lines and the cell survival in compound-treated cultures was evaluated.
# (§6) The complexes were incubated for 24 hours with the above mentioned cell lines and the cell survival in compound-treated cultures was evaluated by the (microculture tetrazolium) MTS method as previously reported.
# 41McisR = assay: Microculture tetrazolium (MTS) cell survival assay; assay type: cell-based
# Description: as §5, §6
# CH1 = assay: Microculture tetrazolium (MTS) cell survival assay; assay type: cell-based; settings: 24 hours incubation
# Description: as §5, §6
# 41M = assay: Microculture tetrazolium (MTS) cell survival assay; assay type: cell-based; settings: 24 hours incubation
# Description: as §5, §6
# A2780 = assay: Microculture tetrazolium (MTS) cell survival assay; assay type: cell-based; settings: 24 hours incubation
# Description: as §5, §6
# CH1cisR = assay: Microculture tetrazolium (MTS) cell survival assay; assay type: cell-based
# Description: as §5, §6
# OV-1063 cells [5] = assay: Determination of Pt-DNA adducts by FAAS; assay type: cell-based, human
# Description: (§7) Cells were seeded for 48 hr before one of the drugs was added to the culture medium. After 24 hr of exposure, the complexes were removed and the cells washed twice with ice-cold PBS and pelleted. DNA from platinum-containing material (2*10^6 cells) was extracted from the cell pellet by QIAamp DNA Blood Kit (QIAGEN, Germany) according to the manufacture instructions. DNA yield was determined by measuring the concentration of DNA in the eluate by absorbance at 260 nm.
# C-26 cells [6] = assay: Determination of Pt-DNA adducts by FAAS; assay type: cell-based, human
# Description: as §7
smiles,measurement,setting,value
"C1CCNCC1.Cc1ccncc1.[Cl][Pt][Cl] [Complex 5, trans-[PtCl2(4-picoline)(piperidine)]]",decrease of EtBr fluorescence intensity by DNA adducts,plasmid pS16-hGH DNA,"lower than that of cisplatin, however, greater than that of transplatin"
same,apoptosis by MC 540/DAPI staining,OV-1063 cells [1],large proportion of the OV-1063 cells appeared to be apoptotic
same,apoptosis by MC 540/DAPI staining,C-26 cells [2],slightly red-fluorescent
same,"% IEC/adduct, frequency of interstrand crosslinks",calf thymus DNA,2%
same,unwinding angle per adduct,calf thymus DNA,11°
same,t1/2 half time of the binding to calf thymus DNA,"calf thymus DNA; 10 mM NaClO4, 37° C., ri = 0.08, differential pulse polarography",260 min
same,"ΔTm, 0.01M Na+","calf thymus DNA; rb = 0.05, 0.01M Na+",+5.5 0.C
same,"ΔTm, 0.2 M","calf thymus DNA; rb = 0.05, 0.2 M",+0.5 0.C
same,"ΔΔεmax, maximum of the positive CD band at around 275 nm","calf thymus DNA; rb = 0.05, difference between control and platinated DNA",0.04
same,Penetration to cells,OV-1063 cells [3],2092 pmol Pt/1 * 10^6 cells
same,Penetration to cells,C-26 cells [4],14974 pmol Pt/1 * 10^6 cells
same,IC50,"A2780cisR; 24 hours incubation, MTS",135 ± 7 µM
same,resistance factor (IC50 resistant/IC50 sensitive),A2780cisR; A2780cisR/A2780,15
same,resistance factor (IC50 resistant/IC50 sensitive),41McisR; 41McisR/41M,6.0
same,IC50,"41McisR; 24 hours incubation, MTS",210 µM
same,IC50,CH1,26 ± 3 µM
same,IC50,41M,35 ± 4 µM
same,IC50,A2780,9 ± 1 µM
same,IC50,"CH1cisR; 24 hours incubation, MTS",169 ± 9 µM
same,resistance factor (IC50 resistant/IC50 sensitive),CH1cisR; CH1cisR/CH1,(6.5)
same,Pt-DNA adducts,"OV-1063 cells [5]; OV-1063, 24 hr",41 pmol Pt/50 μg DNA
same,DNA platination relative to Cis-Pt,OV-1063 cells [5]; OV-1063 cells,the same
same,Pt-DNA adducts,"C-26 cells [6]; C-26, 24 hr",51 pmol Pt/50 μg DNA
same,DNA platination relative to Cis-Pt,C-26 cells [6]; C-26 cells,the same
